Data taken from the CheMixHub viscosity set.

Test: xn = mol fraction of the nth substance listed

Nc1ccccc1Cl + CCC(C)O
viscosity [mPa·s], 101 kPa
Settings	x1 = 0.0896	x1 = 0.1798	x1 = 0.2798	x1 = 0.3912	x1 = 0.4951	x1 = 0.5894	x1 = 0.6812	x1 = 0.7958	x1 = 0.8925
303.15 K	2.78	2.94	3.11	3.28	3.41	3.51	3.6	3.7	3.76
308.15 K	2.36	2.53	2.69	2.85	2.99	3.1	3.19	3.29	3.36
313.15 K	2.04	2.21	2.37	2.53	2.66	2.77	2.86	2.96	3.03
318.15 K	1.77	1.94	2.09	2.24	2.37	2.47	2.57	2.68	2.74

Cc1cccc(C)c1 + CCCCCCO
101 kPa
Settings	viscosity [mPa·s]
303.15 K, x2 = 0.2002	0.683
313.15 K, x2 = 0.5	0.965
323.15 K, x2 = 0.4001	0.693

O=S1(=O)CCCC1 + Cc1ccccc1
viscosity [mPa·s], 101.3 kPa
Settings	x2 = 0.1267	x2 = 0.2458	x2 = 0.3587	x2 = 0.4651	x2 = 0.5662	x2 = 0.6617	x2 = 0.7527	x2 = 0.8392	x2 = 0.9206
303.15 K	6.052	3.95	2.732	2.029	1.557	1.173	0.9289	0.7548	0.6265
323.15 K	3.906	2.662	1.919	1.458	1.151	0.8828	0.7151	0.5893	0.4967

NCCCO + CC(C)O
Settings	viscosity [mPa·s]
293.15 K, 101 kPa, x1 = 0.7002	19.25

Cc1cccc(C)c1 + CO
293.15 K, 101 kPa
Settings	viscosity [mPa·s]
x2 = 0.2	0.622
x2 = 0.4	0.626
x2 = 0.5	0.646
x2 = 0.6	0.662
x2 = 0.7	0.654
x2 = 0.8	0.641

Cc1cccc(C)c1 + C1COCCO1
Settings	viscosity [mPa·s]
298.15 K, 101 kPa, x2 = 0.7182	1.005

O=S1(=O)CCCC1 + CO
viscosity [mPa·s], 101 kPa
Settings	298.15 K	303.15 K	308.15 K	313.15 K	323.15 K
x1 = 0.0496	0.607	0.569	–	0.498	0.437
x1 = 0.068	–	0.5856	0.5474	0.5133	–
x1 = 0.0966	0.694	0.648	–	0.565	0.495
x1 = 0.1103	–	0.6512	0.6081	0.5686	–
x1 = 0.1632	0.814	0.757	–	0.661	0.579
x1 = 0.1658	–	0.756	0.7042	0.6574	–
x1 = 0.2274	–	0.8999	0.8344	0.7787	–
x1 = 0.2282	0.985	0.916	–	0.792	0.686
x1 = 0.306	1.227	1.137	–	0.986	0.867
x1 = 0.3087	–	1.13	1.047	0.9753	–
x1 = 0.3969	1.587	1.458	–	1.238	1.062
x1 = 0.4056	–	1.495	1.378	1.279	–
x1 = 0.5037	2.208	2.022	–	1.687	1.467
x1 = 0.5284	–	2.142	1.96	1.803	–
x1 = 0.6337	3.233	2.982	–	2.466	2.125
x1 = 0.6422	–	3.025	2.753	2.515	–
x1 = 0.7703	–	4.551	4.1	3.722	–
x1 = 0.7949	5.516	5.126	–	4.165	3.476

CC(O)CC(C)(C)O (stereo not given) + Nc1ccccc1
viscosity [mPa·s], 101 kPa
Settings	x1 = 0.0963	x1 = 0.1952	x1 = 0.2931	x1 = 0.3958	x1 = 0.4941	x1 = 0.5915	x1 = 0.6855	x1 = 0.8047	x1 = 0.8966
308.15 K	3.187	3.549	4.028	4.615	5.519	6.694	8.195	10.82	14.34
318.15 K	2.348	2.62	3.031	3.543	4.32	5.405	6.826	9.45	12.55

Nc1ccccc1Cl + CC(C)CO
viscosity [mPa·s], 101 kPa
Settings	x1 = 0.0805	x1 = 0.1856	x1 = 0.2856	x1 = 0.3751	x1 = 0.4789	x1 = 0.5761	x1 = 0.6805	x1 = 0.7859	x1 = 0.8952
303.15 K	2.81	3	3.16	3.29	3.42	3.53	3.63	3.71	3.78
308.15 K	2.46	2.66	2.81	2.92	3.05	3.15	3.25	3.33	3.39
313.15 K	2.16	2.35	2.5	2.61	2.73	2.83	2.93	2.99	3.01
318.15 K	1.9	2.08	2.23	2.33	2.45	2.55	2.65	2.73	2.78

Cc1cccc(C)c1 + O=C1CCCO1
viscosity [mPa·s], 101.33 kPa
Settings	x2 = 0.1012	x2 = 0.214	x2 = 0.3091	x2 = 0.4022	x2 = 0.5343	x2 = 0.5955	x2 = 0.7101	x2 = 0.8371	x2 = 0.9027
293.15 K	0.69	0.777	0.859	0.948	1.093	1.169	1.332	1.544	1.671
298.15 K	0.648	0.725	0.798	0.88	1.016	1.088	1.235	1.437	1.552
303.15 K	0.61	0.679	0.752	0.829	0.951	1.013	1.147	1.325	1.431
308.15 K	0.573	0.636	0.692	0.761	0.875	0.936	1.06	1.226	1.323

O=C[C@H](O)[C@H](O)[C@H](O)CO + O
298.15 K, 101 kPa
Settings	viscosity [mPa·s]
x1 = 0.003513	0.95
x1 = 0.01898	1.292

O=S(=O)([O-])NC1CCCCC1.[Rb+] + O
viscosity [mPa·s], 101 kPa
Settings	x1 = 0.00091	x1 = 0.001356	x1 = 0.001833	x1 = 0.002303	x1 = 0.002722	x1 = 0.003185	x1 = 0.003618	x1 = 0.004055	x1 = 0.004552
293.15 K	1.024	1.036	1.048	1.061	1.072	1.084	1.096	1.108	1.123
298.15 K	0.9105	0.9203	0.9315	0.9419	0.9516	0.962	0.9723	0.9828	0.9953
303.15 K	0.8157	0.8243	0.8343	0.8431	0.8516	0.8608	0.8696	0.8789	0.8887
313.15 K	0.6675	0.6747	0.6824	0.6896	0.696	0.7034	0.7104	0.7177	0.7252
323.15 K	0.5585	0.564	0.5704	0.5762	0.5814	0.5874	0.5931	0.5992	0.6057

O=S1(=O)CCCC1 + CCO
viscosity [mPa·s], 101 kPa
Settings	293.15 K	298.15 K	303.15 K	308.15 K	313.15 K	323.15 K
x1 = 0.06211	1.21	1.103	1.006	–	0.845	0.714
x1 = 0.068	–	–	1.008	0.9247	0.8482	–
x1 = 0.1147	–	–	1.063	0.976	0.8945	–
x1 = 0.131	1.316	1.197	1.094	–	0.919	0.778
x1 = 0.2039	1.49	1.35	1.228	–	1.031	0.875
x1 = 0.2119	–	–	1.241	1.135	1.039	–
x1 = 0.271	–	–	1.38	1.264	1.155	–
x1 = 0.283	1.734	1.57	1.421	–	1.192	1.009
x1 = 0.3691	2.087	1.883	1.699	–	1.421	1.202
x1 = 0.374	–	–	1.696	1.546	1.417	–
x1 = 0.4622	2.558	2.292	2.09	–	1.734	1.467
x1 = 0.4742	–	–	2.116	1.922	1.755	–
x1 = 0.5688	3.306	2.96	2.668	–	2.207	1.857
x1 = 0.5738	–	–	2.691	2.436	2.216	–
x1 = 0.6865	4.608	4.075	3.682	–	3.001	2.511
x1 = 0.7403	–	–	4.239	3.82	3.446	–
x1 = 0.8141	6.959	6.153	5.503	–	4.423	3.632
x1 = 0.8574	–	–	6.141	5.47	4.899	–

CC(O)CC(C)(C)O (stereo not given) + O=[N+]([O-])c1ccccc1
viscosity [mPa·s], 101 kPa
Settings	x1 = 0.0918	x1 = 0.1905	x1 = 0.2926	x1 = 0.3853	x1 = 0.4886	x1 = 0.5862	x1 = 0.6895	x1 = 0.7727	x1 = 0.8991
308.15 K	1.724	1.903	2.194	2.574	3.288	4.074	5.512	7.423	12.38
318.15 K	1.332	1.478	1.703	2.012	2.606	3.222	4.571	6.127	10.82
